The target of experiment [1] is human recombinant PDE10 enzyme (PDE10A) (Homo sapiens, UniProt Q9Y233). Kind of experiment: PDE10 scintillation proximity assay (SPA), inhibition of human recombinant PDE10 enzyme activity. To be noted: geometric mean of 2-4 determinations unless otherwise indicated (b: ≧5 determinations; c: single determination). Type of experiment: biochemical. How it is done:
PDE10 activity was measured using a scintillation assay (SPA-based method) similar to that previously described by Seeger, T. F. et al., Brain Research 985 (2003) 113-126. The compounds' relative activity as PDE10 inhibitors was investigated by assaying a fixed amount of enzyme in the presence of the test compound and low substrate concentration (cAMP) such that an IC50 could be determined. […] The assay is performed in a 384-well format with 50 μL assay buffer (50 mM TRIS pH 7.5; 1.3 mM MgCl2; 0.01% Brij) containing enough PDE10 to convert ˜20% of 20 nM ^3H-cAMP, and a range of inhibitors. Reactions are incubated for 30 minutes at 25° C. The addition of 20 μL of 8 mg/ml yttrium silicate SPA beads (PerkinElmer) stops the reaction. The plates are sealed (TopSeal, PerkinElmer) and the beads are allowed to settle for 8 hrs, after which they are read on the Trilux Microbeta overnight. ^1Rat enzyme preparation:^2Human enzyme preparation:
Human PDE10A coding sequence (amino acids 21 to 797 from the sequence with accession number NP_001124162.1) was synthesized using codon optimization for insect expression and cloned into the baculovirus expression vector pFastBac (Invitrogen) engineered to include a N-terminal His6 affinity tag to aid in purification as described in Seeger, T. F. et al., Brain Research 985 (2003) 113-126. The recombinant Bacmid was isolated and used to transfect sf9 insect cells to generate a viral stock. To generate cell paste for purification, sf21 cells were infected with the virus stock and cells were harvested 72 hours after infection as described in Seeger, T. F. et al., Brain Research 985 (2003) 113-126. Insect cell paste was lysed and after centrifugation, the supernatant was chromatographed on Ni-NTA agarose (Qiagen) as described in Seeger, T. F. et al., Brain Research 985 (2003) 113-126. Ni-NTA agarose eluting fractions containing PDE10A were chromatographed on Superdex 200 (GE Healthcare Life Sciences) in 50 mM Tris HCl pH 7.5, 150 mM NaCl, 1 mM EDTA, 10% glycerol, 2 mM TCEP, 1.5 mM benzamidine, EDTA-free protease inhibitors (Roche), and 5 μM E-64.
Background: In a scintillation proximity assay essentially only radioactivity close to the scintillant gives light.

The target of experiment [2] is rat PDE10 enzyme (Rattus norvegicus (Rat), UniProt Q9QYJ6). Description: PDE10 scintillation proximity assay (SPA), inhibition of rat PDE10 enzyme activity. Type of experiment: biochemical. To be noted: geometric mean of 2-4 determinations unless otherwise indicated (b: ≧5 determinations; c: single determination). The method, boiled down:
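SPA with fixed recombinant PDE10 (Sf21-expressed, Ni-NTA and Mono Q purified) converting ~20% of 20 nM ³H-cAMP in 50 mM TRIS pH 7.5, 1.3 mM MgCl2, 0.01% Brij, across an inhibitor range.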

Molecules are shown by their SMILES.

By IC50 is commonly meant the concentration that inhibits the measured activity by half.

Chain of rat PDE10 enzyme (Q9QYJ6 24-794): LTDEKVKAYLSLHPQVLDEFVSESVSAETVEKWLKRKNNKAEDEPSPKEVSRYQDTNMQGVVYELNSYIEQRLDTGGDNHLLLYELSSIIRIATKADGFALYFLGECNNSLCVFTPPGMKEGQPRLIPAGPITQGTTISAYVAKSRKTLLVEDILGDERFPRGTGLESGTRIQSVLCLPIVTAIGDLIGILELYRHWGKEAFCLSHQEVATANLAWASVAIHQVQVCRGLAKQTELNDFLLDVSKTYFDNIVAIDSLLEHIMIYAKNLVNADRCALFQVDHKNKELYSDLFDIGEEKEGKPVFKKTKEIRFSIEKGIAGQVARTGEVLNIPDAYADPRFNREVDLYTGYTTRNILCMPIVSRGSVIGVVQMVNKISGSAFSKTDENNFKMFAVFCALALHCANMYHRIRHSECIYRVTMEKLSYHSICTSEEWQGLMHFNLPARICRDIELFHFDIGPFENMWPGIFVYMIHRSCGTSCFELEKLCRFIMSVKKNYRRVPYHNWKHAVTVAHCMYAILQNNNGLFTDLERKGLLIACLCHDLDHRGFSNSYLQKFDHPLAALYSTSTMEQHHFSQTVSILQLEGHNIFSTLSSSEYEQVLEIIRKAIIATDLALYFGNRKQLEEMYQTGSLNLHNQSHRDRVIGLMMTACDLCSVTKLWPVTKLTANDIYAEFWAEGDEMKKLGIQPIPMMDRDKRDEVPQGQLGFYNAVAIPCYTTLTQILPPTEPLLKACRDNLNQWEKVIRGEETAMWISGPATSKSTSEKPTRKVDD

In the case of `Cc1ccc2c(n1)CN(c1ncnn3c(C)nc([C@@H]4CCOC4)c13)CC2` [Example 72, 2-methyl-7-{7-methyl-5-[(3S)-tetrahydrofuran-3-yl]imidazo[5,1-f][1,2,4]triazin-4-yl}-5,6,7,8-tetrahydro-1,7-naphthyridine], the IC50 in experiment [1] was found to be 0.539 nM; in experiment [2], 0.255 nM.

As for `COc1cc2c(cn1)CN(c1ncnn3c(C)nc(-c4ccccc4F)c13)CC2` [Example 71, 2-[5-(2-fluorophenyl)-7-methylimidazo[5,1-f][1,2,4]triazin-4-yl]-6-methoxy-1,2,3,4-tetrahydro-2,7-naphthyridine], the IC50 amounted to 5.77 nM in experiment [1] and 3.41 nM in experiment [2].

As to `COc1cc2c(cn1)CN(c1ncnn3c(C)nc([C@@H]4CCOC4)c13)CC2` [Example 70, 6-methoxy-2-{7-methyl-5-[(3S)-tetrahydrofuran-3-yl]imidazo[5,1-f][1,2,4]triazin-4-yl}-1,2,3,4-tetrahydro-2,7-naphthyridine], the figures for the IC50 in experiment [1] and in experiment [2] were 1.95 nM and 1.52 nM, respectively.

Take `Cc1nc([C@H]2CCOC2)c2c(N3CCn4ncc(C(F)(F)F)c4C3)ncnn12` [Example 50, 7-methyl-5-[(3R)-tetrahydrofuran-3-yl]-4-[3-(trifluoromethyl)-6,7-dihydropyrazolo[1,5-a]pyrazin-5(4H)-yl]imidazo[5,1-f][1,2,4]triazine]: the IC50 is 3.27 nM in experiment [1] and 2.25 nM in experiment [2].

On to `Cc1nc([C@@H]2CCOC2)c2c(N3CCc4noc(C5CC5)c4C3)ncnn12` [Example 6, 4-(3-Cyclopropyl-6,7-dihydro[1,2]oxazolo[4,3-c]pyridin-5(4H)-yl)-7-methyl-5-[(3S)-tetrahydrofuran-3-yl]imidazo[5,1-f][1,2,4]triazine], for which the IC50 was determined as 0.406 nM in experiment [1] and 0.364 nM in experiment [2].

For the compound `Cc1nc([C@@H]2CCOC2)c2c(N3CCc4c(c(C(C)C)nn4C)C3)ncnn12` [Example 86, 7-methyl-4-[1-methyl-3-(propan-2-yl)-1,4,6,7-tetrahydro-5H-pyrazolo[4,3-c]pyridin-5-yl]-5-[(3S)-tetrahydrofuran-3-yl]imidazo[5,1-f][1,2,4]triazine], the results for the IC50 in experiment [1] and in experiment [2] were 0.0444 nM and 0.132 nM, respectively.

Turning to `COc1ccc2c(n1)CN(c1ncnn3c(C)nc([C@@H]4CCOC4)c13)CC2` [Example 19, 2-methoxy-7-{7-methyl-5-[(3S)-tetrahydrofuran-3-yl]imidazo[5,1-f][1,2,4]triazin-4-yl}-5,6,7,8-tetrahydro-1,7-naphthyridine], the IC50 in experiment [1] stood at 2.75 nM; in experiment [2] it was 2.04 nM.

On to `Cc1nc([C@H]2CCOC2)c2c(N3CCc4c(c(C(C)C)nn4C)C3)ncnn12` [Example 85, 7-methyl-4-{1-methyl-3-(propan-2-yl)-1,4,6,7-tetrahydro-5H-pyrazolo[4,3-c]pyridin-5-yl]-5-[(3R)-tetrahydrofuran-3-yl]imidazo[5,1-f][1,2,4]triazine], for which the IC50 in experiment [1] was 0.182 nM; in experiment [2], 0.556 nM.

In the case of `COc1cnc2c(c1)CN(c1ncnn3c(C)nc(-c4ccccc4F)c13)CC2` [Example 25, 6-[5-(2-fluorophenyl)-7-methylimidazo[5,1-f][1,2,4]triazin-4-yl]-3-methoxy-5,6,7,8-tetrahydro-1,6-naphthyridine], the values for the IC50 in experiment [1] and in experiment [2] were 1.41 nM and 1.12 nM, respectively.

Take `Cc1nc(-c2ccccc2F)c2c(N3CCc4c(c(C(F)(F)F)nn4C)C3)ncnn12` [Example 118, 5-(2-fluorophenyl)-7-methyl-4-[1-methyl-3-(trifluoromethyl)-1,4,6,7-tetrahydro-5H-pyrazolo[4,3-c]pyridin-5-yl]imidazo[5,1-f][1,2,4]triazine]: the results for the IC50 in experiment [1] and in experiment [2] were 1.28 nM and 0.943 nM, respectively.

Regarding `Cc1nc([C@@H]2CCOC2)c2c(N3CCc4cnn(C5CC5)c4C3)ncnn12` [Example 5, 4-(1-Cyclopropyl-1,4,5,7-tetrahydro-6H-pyrazolo[3,4-c]pyridin-6-yl)-7-methyl-5-[(3S)-tetrahydrofuran-3-yl]imidazo[5,1-f][1,2,4]triazine], the IC50 turned out to be 0.427 nM in experiment [1] and 0.299 nM in experiment [2].

Consider `Cc1ncc2c(n1)CCN(c1ncnn3c(C)nc(-c4ccccc4F)c13)C2` [Example 111, 6-[5-(2-fluorophenyl)-7-methylimidazo[5,1-f][1,2,4]triazin-4-yl]-2-methyl-5,6,7,8-tetrahydropyrido[4,3-d]pyrimidine], for which the concentration for half-maximal inhibition (IC50) in experiment [1] came out at 18.6 nM; in experiment [2] it was 6.85 nM.

On to `Cc1nc(C2CCOCC2)c2c(N3CCc4ncccc4C3)ncnn12` [Example 95, 6[7-methyl-5-(tetrahydro-2H-pyran-4-yl)imidazo[5,1-f][1,2,4]triazin-4-yl]-5,6,7,8-tetrahydro-1,6-naphthyridine], for which the IC50 in experiment [1] worked out at 8.82 nM; in experiment [2] it was 10.1 nM.

`Cc1ccc2c(n1)CCN(c1ncnn3c(C)nc([C@@H]4CCOC4)c13)C2` [Example 139, 2-methyl-6-{7-methyl-5-[(3S)-tetrahydrofuran-3-yl]imidazo[5,1-f][1,2,4]triazin-4-yl}-5,6,7,8-tetrahydro-1,6-naphthyridine]: the IC50 was 0.279 nM in experiment [1] and 0.27 nM in experiment [2].

`Cc1nc(-c2ccccc2F)c2c(N3CCc4cnn(C5CC5)c4C3)ncnn12` [Example 156, 4-(1-cyclopropyl-1,4,5,7-tetrahydro-6H-pyrazolo[3,4-c]pyridin-6-yl)-5-(2-fluorophenyl)-7-methylimidazo[5,1-f][1,2,4]triazine]: the IC50 in experiment [1] amounted to 1 nM; in experiment [2], 0.905 nM.

Regarding `Cc1nc([C@@H]2CCOC2)c2c(N3CCc4cnn(CC(C)C)c4C3)ncnn12` [Example 169, 7-methyl-4-[1-(2-methylpropyl)-1,4,5,7-tetrahydro-6H-pyrazolo[3,4-c]pyridin-6-yl]-5-[(3S)-tetrahydrofuran-3-yl]imidazo[5,1-f][1,2,4]triazine], the values for the IC50 in experiment [1] and in experiment [2] were 0.755 nM and 0.367 nM, respectively.

As to `Cc1nc(-c2ccccc2F)c2c(N3CCc4ccc(C5CC5)nc4C3)ncnn12` [Example 75, 2-cyclopropyl-7-[5-(2-fluorophenyl)-7-methylimidazo[5,1-f][1,2,4]triazin-4-yl]-5,6,7,8-tetrahydro-1,7-naphthyridine], the figures for the IC50 in experiment [1] and in experiment [2] were 6.03 nM and 3.56 nM, respectively.

Turning to `Cc1nc([C@@H]2CCOC2)c2c(N3CCc4cccnc4C3)ncnn12` [Example 3, 7-{7-Methyl-5-[(3S)-tetrahydrofuran-3-yl]imidazo[5,1-f][1,2,4]triazin-4-yl}-5,6,7,8-tetrahydro-1,7-naphthyridine], the results for the IC50 in experiment [1] and in experiment [2] were 0.785 nM and 0.607 nM, respectively.

On to `CNc1ccc2c(n1)CCN(c1ncnn3c(C)nc([C@@H]4CCOC4)c13)C2` [Example 152, N-methyl-6-{7-methyl-5-[(3S)-tetrahydrofuran-3-yl]imidazo[5,1-f][1,2,4]triazin-4-yl}-5,6,7,8-tetrahydro-1,6-naphthyridin-2-amine], for which the figures for the IC50 in experiment [1] and in experiment [2] were 0.333 nM and < 0.13 nM, respectively.

On to `Cc1ncc2c(n1)CCN(c1ncnn3c(C)nc([C@@H]4CCOC4)c13)C2` [Example 134, 2-methyl-6-{7-methyl-5-[(3S)-tetrahydrofuran-3-yl]imidazo[5,1-f][1,2,4]triazin-4-yl}-5,6,7,8-tetrahydropyrido[4,3-d]pyrimidine], for which the IC50 in experiment [1] came out at 4.51 nM; in experiment [2], 2.44 nM.

(Values after US8933224B2, “Triazine derivatives” (Pfizer Inc., priority 2013, dated 2015).)
